The source of these data is PMC4648982 (Chemistry Central Journal, 2015).

The test has as its target jack bean urease (Canavalia ensiformis, UniProt P07374). The experiment in a line: biochemical. The settings on record: for urease inhibitory activity in words: in vitro assay, authors' verbal grading. On the procedure:
Reaction mixture comprising of 25μL of enzyme (jack bean urease) (1 unit/well) solution and 55 μL of phosphate buffers (4 mM) containing 100 mM urea were incubated with 5 μL of test compounds dissolved in methanol (0.5 mM concentration) at 30 °C for 15 min in 96-well plates. Urease activity was determined by measuring ammonia production using the indophenol method as described by Weather burn. Briefly, 45 μl each phenol reagent (1 % w/v phenol and 0.005 % w/v sodium nitroprussside) and 70 μL of alkali reagent(0.5 % w/v NaOH and 0.1 % active chloride NaOCl) were added to each well. The increasing absorbance at 630 nm was measured afther 50 min, using a microplate reader (Molecular Device, USA). All reactions were performed in triplicate in a final volume of 200 μL. The results (change in absorbance per min) were processed by using softMax Pro software (molecular Device, USA). The entire assays were performed at pH 6.8. Percentage inhibitions were calculated from the formula 100 − (ODtestwell/ODcontrol) × 100. Thiourea was used as the standard inhibitor of urease.

Entries after “also recorded” stand apart in the source; their conditions may differ. Counter-ions that a name gives are not always drawn. Like-named read-outs stand apart in the source and are kept apart here.

Sequence of jack bean urease (P07374 whole entry, looked up): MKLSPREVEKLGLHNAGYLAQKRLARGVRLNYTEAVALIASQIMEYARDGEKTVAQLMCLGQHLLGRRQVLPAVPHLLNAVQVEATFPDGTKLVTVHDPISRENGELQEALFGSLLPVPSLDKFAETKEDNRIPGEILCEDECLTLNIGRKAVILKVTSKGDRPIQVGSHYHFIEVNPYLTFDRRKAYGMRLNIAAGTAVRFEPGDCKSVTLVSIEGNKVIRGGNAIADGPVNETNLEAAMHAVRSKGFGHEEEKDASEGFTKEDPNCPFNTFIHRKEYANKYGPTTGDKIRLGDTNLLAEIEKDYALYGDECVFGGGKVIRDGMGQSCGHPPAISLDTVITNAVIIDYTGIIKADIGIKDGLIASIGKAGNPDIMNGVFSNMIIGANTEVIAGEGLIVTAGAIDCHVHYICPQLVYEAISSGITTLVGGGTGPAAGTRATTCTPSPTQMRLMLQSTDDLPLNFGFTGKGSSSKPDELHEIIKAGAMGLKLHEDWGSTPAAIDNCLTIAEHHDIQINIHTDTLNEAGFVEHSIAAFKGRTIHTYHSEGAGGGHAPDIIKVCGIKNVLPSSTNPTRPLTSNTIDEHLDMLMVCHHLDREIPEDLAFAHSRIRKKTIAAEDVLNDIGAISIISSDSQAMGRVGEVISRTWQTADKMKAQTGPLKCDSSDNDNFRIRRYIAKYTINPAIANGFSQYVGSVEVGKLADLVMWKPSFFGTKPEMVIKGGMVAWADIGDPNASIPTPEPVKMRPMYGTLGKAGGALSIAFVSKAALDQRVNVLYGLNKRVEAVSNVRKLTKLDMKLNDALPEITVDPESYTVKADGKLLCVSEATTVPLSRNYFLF

Regarding `Cn1c(O)c(C(c2ccc(C=O)cc2)c2c(O)n(C)c(=O)n(C)c2=O)c(=O)n(C)c1=O` [Compound 4a, 4-(bis(6-Hydroxy-1,3-dimethyl-2,4-dioxo-1,2,3,4-tetrahydropyrimidin-5-yl)methyl)benzaldehyde diethylaminium salt], the IC50 (commonly the concentration that gives 50% inhibition) was determined as 39.3 ± 0.36 µM.
For the compound `Cn1c(O)c(C(c2ccc(C=O)cc2)c2c(O)[nH]c(=O)[nH]c2=O)c(=O)n(C)c1=O` (stereo not drawn) [Compound 5l, 4-((6-Hydroxy-1,3-dimethyl-2,4-dioxo-1,2,3,4-tetrahydropyrimidin-5-yl)(6-hydroxy-2,4-dioxo-1,2,3,4-tetrahydropyrimidin-5-yl)methyl)benzaldehyde diethylaminium salt], 17.2 ± 0.44 µM corresponded to half-maximal inhibition (IC50) and the “urease inhibitory activity in words” value is recorded as “most active”.
In the case of `COc1ccc(C(C2=C(O)CC(C)(C)CC2=O)c2c(O)n(C)c(=O)n(C)c2=O)cc1` (stereo not drawn) [Compound 4o, 5-((2-Hydroxy-4,4-dimethyl-6-oxocyclohex-1-en-1-yl)(4-methoxyphenyl)methyl)-1,3-dimethyl-2,6-dioxo-1,2,3,6-tetrahydropyrimidin-4-olate diethylaminium salt], the IC50 was determined as 83 ± 0.66 µM.
On the same count and under the same terms, the value for `Cc1cccc(C(c2c(O)n(C)c(=O)n(C)c2=O)c2c(O)n(C)c(=O)n(C)c2=O)c1` [Compound 4b, 5,5′-(3-Tolylmethylene)bis(1,3-dimethylpyrimidine-2,4,6(1H,3H,5H)-trione) diethylaminium salt] was 34.4 ± 1.57 µM; that for `CC1(C)CC(=O)C(C(C2=C(O)CC(C)(C)CC2=O)c2ccc(C=O)cc2)=C(O)C1` [Compound 5j, 2-((4-Formylphenyl)(2-hydroxy-4,4-dimethyl-6-oxocyclohex-1-en-1-yl)methyl)-5,5-dimethyl-3-oxocyclohex-1-enolate diethylaminium salt] was 72.6 ± 0.59 µM.
Regarding `CC1(C)CC(=O)C(C(C2=C(O)CC(C)(C)CC2=O)c2cccc([N+](=O)[O-])c2)=C(O)C1` [Compound 5h, 2-((2-Hydroxy-4,4-dimethyl-6-oxocyclohex-1-en-1-yl)(3-nitrophenyl)methyl)-5,5-dimethyl-3-oxocyclohex-1-enolate diethylaminium salt], the IC50 was determined as 49 ± 0.55 µM and the “urease inhibitory activity in words” value was “good urease inhibitory activity”.
In the case of `Cn1c(O)c(C(c2ccc3ccccc3c2)c2c(O)n(C)c(=O)n(C)c2=O)c(=O)n(C)c1=O` [Compound 4h, 5,5′-(Naphthalen-2-ylmethylene)bis(1,3-dimethylpyrimidine-2,4,6(1H,3H,5H)-trione) diethylaminium salt], half-maximal inhibition (IC50) required 40.3 ± 0.32 µM.
Still for that read-out and setting: the value for `Cn1c(O)c(C(C2=C(O)CC(C)(C)CC2=O)c2c(Cl)cccc2Cl)c(=O)n(C)c1=O` (stereo not drawn) [Compound 4y, 5-((2,6-Dichlorophenyl)(2-hydroxy-4,4-dimethyl-6-oxocyclohex-1-en-1-yl)methyl)-1,3-dimethyl-2,6-dioxo-1,2,3,6-tetrahydropyrimidin-4-olate diethylaminium salt] was 83.4 ± 1 µM.
Regarding `Cn1c(O)c(C(C2=C(O)CC(C)(C)CC2=O)c2ccccc2[N+](=O)[O-])c(=O)n(C)c1=O` (stereo not drawn) [Compound 4s, 5-((2-Hydroxy-4,4-dimethyl-6-oxocyclohex-1-en-1-yl)(1-nitrophenyl)methyl)-1,3-dimethyl-2,6-dioxo-1,2,3,6-tetrahydropyrimidin-4-olate diethylaminium salt], the IC50 worked out at 110 ± 1.1 µM and the “urease inhibitory activity in words” value was “inactivity”.
In turn, `CC1(C)CC(=O)C(C(c2ccc(Cl)cc2)c2c(O)[nH]c(=O)[nH]c2=O)=C(O)C1` (stereo not drawn) [Compound 5m, 5-((4-Chlorophenyl)(2-hydroxy-4,4-dimethyl-6-oxocyclohex-1-en-1-yl)methyl)-2,6-dioxo-1,2,3,6-tetrahydropyrimidin-4-olate diethylaminium salt] gave an IC50 of 65.9 ± 0.61 µM.
Consider `CC1(C)CC(=O)C(C(C2=C(O)CC(C)(C)CC2=O)c2ccccc2[N+](=O)[O-])=C(O)C1` [Compound 5i, 2-((2-Hydroxy-4,4-dimethyl-6-oxocyclohex-1-en-1-yl)(2-nitrophenyl)methyl)-5,5-dimethyl-3-oxocyclohex-1-enolate diethylaminium salt], for which the 50% inhibitory concentration (IC50) was determined as 210.1 ± 0.29 µM and the “urease inhibitory activity in words” value is recorded as “inactivity”.
In the same order, the values of `O=c1[nH]c(O)c(C(c2ccc(Cl)cc2)c2c(O)[nH]c(=O)[nH]c2=O)c(=O)[nH]1` [Compound 4j, 5,5′-((4-Chlorophenyl)methylene)bis(6-hydroxypyrimidine-2,4(1H,3H)-dione) diethylaminium salt] are 22.3 ± 0.73 µM and “active”.
Turning to `CC1(C)CC(=O)C(C(c2ccc3ccccc3c2)c2c(O)[nH]c(=O)[nH]c2=O)=C(O)C1` (stereo not drawn) [Compound 5r, 5-((2-Hydroxy-4,4-dimethyl-6-oxocyclohex-1-en-1-yl)(naphthalen-2-yl)methyl)-2,6-dioxo-1,2,3,6-tetrahydropyrimidin-4-olate diethylaminium salt], half-maximal inhibition (IC50) required 82.8 ± 0.72 µM.
`Cn1c(O)c(C(C2=C(O)CC(C)(C)CC2=O)c2ccc3ccccc3c2)c(=O)n(C)c1=O` (stereo not drawn) [Compound 4z, 5-((2-Hydroxy-4,4-dimethyl-6-oxocyclohex-1-en-1-yl)(naphthalen-2-yl)methyl)-1,3-dimethyl-2,6-dioxo-1,2,3,6-tetrahydropyrimidin-4-olate diethylaminium salt] came in with an IC50 of 39.8 ± 1.38 µM.
On the same count and under the same terms, for `Cn1c(O)c(C(C2=C(O)CC(C)(C)CC2=O)c2cccc(Br)c2)c(=O)n(C)c1=O` (stereo not drawn) [Compound 4r, 5-((3-Bromophenyl)(2-hydroxy-4,4-dimethyl-6-oxocyclohex-1-en-1-yl)methyl)-1,3-dimethyl-2,6-dioxo-1,2,3,6-tetrahydropyrimidin-4-olate diethylaminium salt] the value was 27.5 ± 0.19 µM; for `Cn1c(O)c(C(c2ccc(O)cc2)c2c(O)n(C)c(=O)n(C)c2=O)c(=O)n(C)c1=O` [Compound 4f, 5,5′-((4-hydroxyphenyl)methylene)bis(6-hydroxy-1,3-dimethylpyrimidine-2,4(1H,3H)-dione) diethylaminium salt], 54.2 ± 0.83 µM.
Regarding `CN(C)c1ccc(C(C2=C(O)CC(C)(C)CC2=O)c2c(O)n(C)c(=O)n(C)c2=O)cc1` (stereo not drawn) [Compound 4t, 5-((2-Hydroxy-4,4-dimethyl-6-oxocyclohex-1-en-1-yl)(4-(dimethylamino)phenyl)methyl)-1,3-dimethyl-2,6-dioxo-1,2,3,6-tetrahydropyrimidin-4-olate diethylaminium salt], the midpoint of inhibition, the IC50, lay at 142.1 ± 0.64 µM and the “urease inhibitory activity in words” value is “least active; also recorded: inactivity”.
“2-((2-Hydroxy-4,4-dimethyl-6-oxocyclohex-1-en-1-yl)(m-tolyl)methyl)-5,5-dimethyl-3-oxocyclohex-1-enolate diethylaminium salt [Compound 5d]”: the IC50 (jack bean urease, indophenol method, pH 6.8, 30 °C, 15 min incubation, triplicate, read-out: Urease inhibition IC50 ± SEM) amounted to 51.3 ± 0.45 µM.
For the compound `COc1ccc(C(c2c(O)n(C)c(=O)n(C)c2=O)c2c(O)n(C)c(=O)n(C)c2=O)cc1` [Compound 4d, 5,5′-((4-Methoxyphenyl)methylene)bis(1,3-dimethylpyrimidine-2,4,6(1H,3H,5H)-trione) diethylaminium salt], half-maximal inhibition (IC50) required 31.6 ± 0.79 µM.
On to `CC1(C)CC(=O)C(C(c2ccccc2)c2c(O)[nH]c(=O)[nH]c2=O)=C(O)C1` (stereo not drawn) [Compound 5n, 5-((2-Hydroxy-4,4-dimethyl-6-oxocyclohex-1-en-1-yl)(phenyl)methyl)-2,6-dioxo-1,2,3,6-tetrahydropyrimidin-4-olate diethylaminium salt], for which the midpoint of inhibition, the IC50, lay at 23.7 ± 0.57 µM and the “urease inhibitory activity in words” value is reported as “active”.
Consider `Cn1c(O)c(C(C2=C(O)CC(C)(C)CC2=O)c2ccc(Br)cc2)c(=O)n(C)c1=O` (stereo not drawn) [Compound 4q, 5-((4-Bromophenyl)(2-hydroxy-4,4-dimethyl-6-oxocyclohex-1-en-1-yl)methyl)-1,3-dimethyl-2,6-dioxo-1,2,3,6-tetrahydropyrimidin-4-olate diethylaminium salt], for which half-maximal inhibition (IC50) required 24.6 ± 0.42 µM.
Same read-out and setting: for `Cc1ccc(C(C2=C(O)CC(C)(C)CC2=O)c2c(O)[nH]c(=O)[nH]c2=O)cc1` (stereo not drawn) [Compound 5p, 5-((2-Hydroxy-4,4-dimethyl-6-oxocyclohex-1-en-1-yl)(p-tolyl)methyl)-2,6-dioxo-1,2,3,6-tetrahydropyrimidin-4-olate diethylaminium salt] the value was 27.4 ± 0.54 µM.
For `CC1(C)CC(=O)C(C(C2=C(O)CC(C)(C)CC2=O)c2ccc3ccccc3c2)=C(O)C1` [Compound 5s, 2-((2-Hydroxy-4,4-dimethyl-6-oxocyclohex-1-en-1-yl)(naphthalen-2-yl)methyl)-5,5-dimethyl-3-oxocyclohex-1-enolate diethylaminium salt], half-maximal inhibition (IC50) required 123.2 ± 0.37 µM and the “urease inhibitory activity in words” value is listed as “inactivity”.
The compound `CC1(C)CC(=O)C(C(c2ccc(C=O)cc2)c2c(O)[nH]c(=O)[nH]c2=O)=C(O)C1` (stereo not drawn) [Compound 5q, 2-((4-Formylphenyl)(6-hydroxy-2,4-dioxo-1,2,3,4-tetrahydropyrimidin-5-yl)methyl)-5,5-dimethyl-3-oxocyclohex-1-enolate diethylaminium salt] returned an IC50 of 41.6 ± 0.41 µM.
On the same count and under the same terms, the value for `CC1(C)CC(=O)C(C(c2ccc(Br)cc2)c2c(O)[nH]c(=O)[nH]c2=O)=C(O)C1` (stereo not drawn) [Compound 5o, 5-((4-Bromophenyl)(2-hydroxy-4,4-dimethyl-6-oxocyclohex-1-en-1-yl)methyl)-2,6-dioxo-1,2,3,6-tetrahydropyrimidin-4-olate diethylaminium salt] was 34.6 ± 0.79 µM.
